Measurements: patent US4593104A, “2-halo-N-(azole-1-yl-methyl)-substituted acetanilides” (BASF Aktiengesellschaft, priority 1976, dated 1986)

Key:
[1] = test system: Bromus spp.; test: preemergence treatment in the greenhouse, % damage; assay type: in vivo
Description: (§1) The vessels employed were plastic flowerpots having a volume of 300 cm^3; the substrate was a sandy loam containing about 1.5% humus. The seeds of the test plants (see Table 1) were sown shallow, and separated according to species. In the case of Cyperus esculentus, pregerminated tubers were planted. In the preemergence treatment, the active ingredients were then immediately applied to the surface of the soil. They were suspended or emulsified in water as the vehicle, and sprayed through atomizing nozzles. After the agents had been applied, the vessels were lightly sprinkler-irrigated to set germination and growth going, and to activate the chemical agents. The vessels were then covered with transparent plastic hoods until the plants had taken root. This cover ensured uniform germination of the test plants (to the extent that this was not impaired by the chemicals), and prevented readily volatile substances from evaporating.
(§2) For postemergence treatment, the plants were first grown to a height of from 3 to 10 cm, depending on their habit, before treated. Hoods were not placed on the pots. The experiments were set up in the greenhouse, hotter areas (25° to 40° C.) being preferred for heat-loving species, and 15° to 30° C. for plants from moderate climates. The experiments were carried out for from 4 to 6 weeks. During this period the plants were tended and their reaction to the various treatments was assessed. The following tables contain the substances investigated, the application rates in kg/ha of active ingredient, and the test plant species. Assessments were made on a 0 to 100 scale, 0 denoting no damage or normal emergence, and 100 denoting no emergence or complete destruction of at least the visible plant parts.

[2] = test system: Echin. c.g.; test: preemergence treatment in the greenhouse, % damage; assay type: in vivo
Description: as §1, §2

[3] = test system: Cyperus ferax; test: preemergence treatment in the greenhouse, % damage; assay type: in vivo
Description: as §1, §2

[4] = test system: Matric. spp.; test: preemergence treatment in the greenhouse, % damage; assay type: in vivo
Description: as §1, §2

[5] = test system: Alopec. myosur.; test: preemergence treatment in the greenhouse, % damage; assay type: in vivo
Description: as §1, §2

[6] = test system: Setaria spp.; test: preemergence treatment in the greenhouse, % damage; assay type: in vivo
Description: as §1, §2

[7] = test system: Beta vulg.; test: preemergence treatment in the greenhouse, % damage; assay type: in vivo, Beta vulgaris
Description: as §1, §2

[8] = test system: Glyc. max; test: preemergence treatment in the greenhouse, % damage; assay type: in vivo, Glycine max
Description: as §1, §2

[9] = test system: Zea mays; test: preemergence treatment in the greenhouse, % damage; assay type: in vivo
Description: as §1, §2

[10] = test system: Solanum nigrum; test: preemergence treatment in the greenhouse, % damage; assay type: in vivo
Description: as §1, §2

[11] = test system: Brassica napus; test: preemergence treatment in the greenhouse, % damage; assay type: in vivo
Description: as §1, §2

[12] = test system: Beta vulg.; test: Table 13, % damage; assay type: in vivo, Beta vulgaris
Description: as §1, §2

[13] = test system: Setar. spp.; test: Table 13, % damage; assay type: in vivo
Description: as §1, §2

[14] = test system: Echin c.g.; test: Table 13, % damage; assay type: in vivo
Description: as §1, §2

[15] = test system: Alopec. myosur.; test: Table 13, % damage; assay type: in vivo
Description: as §1, §2

CCc1cccc(C)c1N(Cn1cc(OC)cn1)C(=O)CCl
% damage ([1]; 0.5 kg/ha): 90% | % damage ([1]; 1.0 kg/ha): 98% | % damage ([2]; 0.5 kg/ha): 100% | % damage ([2]; 1.0 kg/ha): 100% | % damage ([3]; 0.5 kg/ha): 100% | % damage ([3]; 1.0 kg/ha): 100% | % damage ([4]; 0.5 kg/ha): 98% | % damage ([4]; 1.0 kg/ha): 98% | % damage ([5]; 0.5 kg/ha): 100% | % damage ([5]; 1.0 kg/ha): 100% | % damage ([6]; 0.5 kg/ha): 100% | % damage ([6]; 1.0 kg/ha): 100% | % damage ([7]; 0.5 kg/ha): 5% | % damage ([7]; 1.0 kg/ha): 15% | % damage ([8]; 0.5 kg/ha): 0% | % damage ([8]; 1.0 kg/ha): 0%

Cc1cc(C)n(CN(C(=O)CCl)c2ccccc2C)n1
% damage ([1]; 1.0 kg/ha): 95% | % damage ([9]; 1.0 kg/ha): 0% | % damage ([10]; 1.0 kg/ha): 100% | % damage ([2]; 1.0 kg/ha): 85% | % damage ([11]; 1.0 kg/ha): 10% | % damage ([4]; 1.0 kg/ha): 90% | % damage ([5]; 1.0 kg/ha): 85% | % damage ([6]; 1.0 kg/ha): 60%

Cc1cccc(C)c1N(Cn1ccnc1)C(=O)CCl
% damage ([12]; appl. rate 1.0): 0% | % damage ([13]; appl. rate 1.0): 20% | % damage ([14]; appl. rate 1.0): 40% | % damage ([15]; appl. rate 1.0): 20%

COc1cnn(CN(C(=O)CCl)c2c(C)cccc2C)c1
% damage ([1]; 0.5 kg/ha): 100% | % damage ([1]; 1.0 kg/ha): 100% | % damage ([2]; 0.5 kg/ha): 100% | % damage ([2]; 1.0 kg/ha): 100% | % damage ([3]; 0.5 kg/ha): 100% | % damage ([3]; 1.0 kg/ha): 100% | % damage ([4]; 0.5 kg/ha): 95% | % damage ([4]; 1.0 kg/ha): 95% | % damage ([5]; 0.5 kg/ha): 100% | % damage ([5]; 1.0 kg/ha): 100% | % damage ([6]; 0.5 kg/ha): 100% | % damage ([6]; 1.0 kg/ha): 100% | % damage ([8]; 0.5 kg/ha): 0% | % damage ([8]; 1.0 kg/ha): 0%

Cc1ccccc1N(Cn1nccc1C)C(=O)CCl
% damage ([1]; 2.0 kg/ha): 90% | % damage ([9]; 2.0 kg/ha): 0% | % damage ([10]; 2.0 kg/ha): 100% | % damage ([2]; 2.0 kg/ha): 95% | % damage ([11]; 2.0 kg/ha): 10% | % damage ([4]; 2.0 kg/ha): 90% | % damage ([5]; 2.0 kg/ha): 90% | % damage ([6]; 2.0 kg/ha): 100%

Cc1cccc(C)c1N(Cn1cnc(Cl)c1Cl)C(=O)CCl
% damage ([12]; appl. rate 0.5): 0% | % damage ([12]; appl. rate 1.0): 0% | % damage ([13]; appl. rate 0.5): 100% | % damage ([13]; appl. rate 1.0): 100% | % damage ([14]; appl. rate 0.5): 100% | % damage ([14]; appl. rate 1.0): 100% | % damage ([15]; appl. rate 0.5): 80% | % damage ([15]; appl. rate 1.0): 80%

CCc1cccc(CC)c1N(Cn1cc(OC)cn1)C(=O)CCl
% damage ([1]; 1.0 kg/ha): 98% | % damage ([1]; 2.0 kg/ha): 98% | % damage ([2]; 1.0 kg/ha): 100% | % damage ([2]; 2.0 kg/ha): 100% | % damage ([3]; 1.0 kg/ha): 100% | % damage ([3]; 2.0 kg/ha): 100% | % damage ([4]; 1.0 kg/ha): 90% | % damage ([4]; 2.0 kg/ha): 98% | % damage ([5]; 1.0 kg/ha): 99% | % damage ([5]; 2.0 kg/ha): 99% | % damage ([6]; 1.0 kg/ha): 100% | % damage ([6]; 2.0 kg/ha): 100% | % damage ([7]; 1.0 kg/ha): 10% | % damage ([7]; 2.0 kg/ha): 15% | % damage ([8]; 1.0 kg/ha): 0% | % damage ([8]; 2.0 kg/ha): 0%
